# In article PMC5712521, “Dendrogenin A drives LXR to trigger lethal autophagy in cancers” (Nature Communications, 2017):
# Experiments:
# A375 cells = assay: DDA-induced cytotoxicity; assay type: cell-based; settings: Homo sapiens, A-375; A375 (H), BRaf V600E; 72 h; read-out: Cytotox EC50
# Method: (§1) Melanoma cells were seeded into 6-well plates at 60,000 cells per well and AML cells at 250,000 cells/ml. The cells were then treated with control solvent vehicle (1/1000 ethanol in water) or DDA. Where indicated, treated cells were incubated in the presence or absence of each inhibitor for time shown. Cell death was determined by the trypan blue exclusion assay. Cells were scraped and resuspended in trypan blue solution (0.25% (w/v) in PBS) and counted in a Malassez cell under light microscopy. Cell viability was then quantified by counting viable (trypan blue-negative) and dead cells (trypan blue-positive). […]
# (§2) (cytotox) and clonogenicity (clono) inhibition in a subset of human (H) and mouse (M)
# (§3) m elanom a cell lines. T he BRaf status in m elanom a cells lines is shown. […]
# WM115 cells = assay: DDA-induced cytotoxicity; assay type: cell-based; settings: Homo sapiens, WM-115; WM115 (H), BRaf V600E; 72 h; read-out: Cytotox EC50
# Method: as §1, §2, §3
structure (smiles),measurement,setting,value
"CC(C)CCC[C@@H](C)[C@H]1CC[C@H]2[C@@H]3C[C@@H](NCCc4cnc[nH]4)[C@@]4(O)C[C@@H](O)CC[C@]4(C)[C@H]3CC[C@]12C [DDA, Dendrogenin A]",EC50,A375 cells,1.8 ± 0.2 µM
same,EC50,WM115 cells,2.2 ± 0.2 µM
